Source: US10799501B2, “Combination of an inhibitor of PARP with an inhibitor of GSK-3 or DOT1L” (King's College London, priority 2015, dated 2020)

How the values were obtained:
MLL pre-LSC = experiment: Colony formation of MLL pre-LSC with PARPi, LiCl or combination; format: cell-based, mouse; details: seven days; 8 mM LiCl, 1 μM Olaparib
Procedure: Colonies were scored 6-7 days after plating. For other in vitro studies, mouse leukemic cells and primary AML cell lines were subjected to continuously Olaparib (1 μM) or LiCl (8 mM) treatment in liquid culture for whole duration as indicated in the figures or figure legends. For human leukemic cell lines, experiments were performed as described above with 5 μM Olaparib. 1×10^5 cells were cytospun for 5 min at 300 g onto glass slides. Slides were then stained with May-Grunwald solution (Sigma-Aldrich) for 3 min at room temperature. After washing in water, they were incubated for 20 min in Giemsa solution (Sigma-Aldrich) (1:20 in water). Slides were washed again in water before being mounted with Mowiol. Cells were counted in at least 5 fields for each slide, for a total of over 100 cells per condition. NBT reduction assay were performed to determine myeloid differentiation. 0.1% of NBT (final concentration) was added to the liquid culture or semi-solid methocult and incubated at 37° C. CO2 incubator for 3 hrs and 12 hrs, respectively. Cells were then washed in PBS and the differentiated cells were indicated by the deposition of dark blue insoluble formazan (NBT positive cells) and the percentage of differentiated cells were counted under microscopy. At least 200 cells were counted in most of the cases.

[1] = tested on: MLL-AF9 leukemic cells (Hoxa9−/− background); experiment: C57Bl/6 mice transplanted with Hoxa9−/− MLL-AF9 leukemic cells, Olaparib treatment; format: in vivo, mouse; details: Olaparib 50 mg/kg daily
Procedure: For Hoxa9 KO studies, we intravenously injected […] MLL-AF9 leukemic cells (wild type or Hoxa9−/− background) together with 2×10^5 bone marrow rescue cells into lethally irradiated C57Bl/6 mice (2 doses of irradiation 550 RADS each) for disease development. For drug studies, the control cohort received vehicle (10% 2-Hydroxpropyl-beta-cyclodextrin, HBC, Sigma-Aldrich) and the PARPi treatment group received daily Olaparib 50 mg/kg in 10% HBC for two-four weeks.

[2] = tested on: AML1-ETO transformed cells; experiment: In vitro drug treatment of primary murine hematopoietic cells transformed by AML1-ETO (RTTA); format: cell-based, mouse
Procedure: Transduction using concentrated viral supernatant expressing the oncogene of interest was carried out by centrifugation (spinoculation) at 800 g at 32° C. for 2 hours in the presence of 5 μg ml^-1 polybrene (Sigma-Aldrich). Cells were subsequently plated in 1% methylcellulose medium ([…]; Stem Cell Technologies) containing 20 ngml^-1 SCF, 10 ngml^-1 IL-3, 10 ngml^-1 IL-6 and 10 ngml^-1 granulocyte macrophage colony-stimulating factor (GM-CSF) and appropriate selection antibiotic. Colonies were counted after 7 days of culture and replated every 6-7 days at 5×103-1.5×10^4 cell density. Re-plating was performed weekly to generate primary cell lines for further analysis. After the third or fourth round of plating, cells were cultured in R20/20 medium (RPMI 1640, 20% FCS, 20% WEHI-conditioned medium, 2 mM L-glutamine, 100 U/ml penicillin, and 100 μg/ml streptomycin) supplemented with 20 ngml^-1 stem cell factor (SCF), 10 ngml^-1 interleukin (IL)-3, and 10 ngml^-1 IL-6 to establish cell lines. All recombinant murine cytokines were from PeprotechEC. […] Colonies were scored 6-7 days after plating. For other in vitro studies, mouse leukemic cells and primary AML cell lines were subjected to continuously Olaparib (1 μM) or LiCl (8 mM) treatment in liquid culture for whole duration as indicated in the figures or figure legends. For human leukemic cell lines, experiments were performed as described above with 5 μM Olaparib. Cells were cytospun onto a glass slide at 400 g for 5 minutes and then fixed for 10 minutes with 2% formaldehyde/0.2% glutaraldehyde (Sigma Aldrich). Cells were then washed with PBS, and then incubated at 37° C. for at least 2 hours with a staining solution (30 mM Citric Acid/Phosphate buffer, 5 mM K4Fe(CN)6, 5 mM K3Fe(CN)6, 150 mM NaCl, 2 mM MgCl2, 1 mg/ml X-Gal) (All reagents from Sigma-Aldrich)62. Cells were counted in at least 5 fields for each slide, for a total of over 100 cells. The percentage of senescent cells was calculated by the percentage of the number of blue cell in the field. Cells were cytospun onto a glass slide at 400 g for 5 minutes and then fixed for 30 minutes in 4% PFA and permeabilized and blocked in 0.8% Tx-100, 10% FBS/1% BSA (Sigma-Aldrich) in PBS for 15 min at room temperature. Mouse anti mouse γH2AX ([…]) (Upstate clone JBW301#05-636) and rabbit anti mouse RAD51 (Santa Cruz Biotecnology […]# sc-8349) were diluted in TBS containing 10% FBS/1% BSA and incubated overnight at 4C. […] Slides were then washed five times at 10 min each with PBS. Slides were briefly washed in water and air-dried prior to mounting with Mowiol-DABCO and a coverslip. Cells were counted in at least 5 fields for each slide, for a total of over 100 cells per condition. 1×10^5 cells were cytospun for 5 min at 300 g onto glass slides. Slides were then stained with May-Grunwald solution (Sigma-Aldrich) for 3 min at room temperature. After washing in water, they were incubated for 20 min in Giemsa solution (Sigma-Aldrich) (1:20 in water). Slides were washed again in water before being mounted with Mowiol. Cells were counted in at least 5 fields for each slide, for a total of over 100 cells per condition. NBT reduction assay were performed to determine myeloid differentiation. […] Cells were then washed in PBS and the differentiated cells were indicated by the deposition of dark blue insoluble formazan (NBT positive cells) and the percentage of differentiated cells were counted under microscopy. At least 200 cells were counted in most of the cases.

[3] = C57Bl6 mice succumbed with MLL-AF9-Hoxa9 KO driven leukemia

O=C(c1cc(Cc2n[nH]c(=O)c3ccccc23)ccc1F)N1CCN(C(=O)C2CC2)CC1 [Olaparib, 4-[(3-[(4-cyclopropylcarbonyl)piperazin-4-yl]carbonyl)-4-fluorophenyl]methyl(2H)-phthalazin-1-one]
colony forming ability / growth inhibition (MLL pre-LSC): non-effective
BM Engraftment (%) [1, 3]: 82.06 ± 18.95%
Disease Latency (days; median) [1, 3]: 67 days
Hematopoietic Liver Engraftment (%) [1, 3]: 62.18 ± 38.26%
Hematopoietic Spleen Engraftment (%) [1, 3]: 65.4 ± 33.45%
Liver [1, 3]: 1.696 ± 0.1262 g
Spleen [1, 3]: 0.4337 ± 0.1559 g
disease latency ([1]; Hoxa9 deficient MLL-AF9 leukemic cells): significantly delayed the disease latency
suppression of colony forming ability ([2]; 1 uM Olaparib, methylcellulose 7 days, p<0.001): about 90%
senescence (β-galactosidase staining) ([2]; PARPi 24 hrs and 48 hrs): underwent significant senescence
Rad51 recruitment to DNA damage sites (RAD51 foci) ([2]; PARPi treatment for 6 hours): no significant Rad51 recruitment
percentage of differentiation (morphology and NBT reduction) ([2]; time course PARPi treatment): significantly increased the percentage of differentiation
cells with γH2AX and Rad51 foci ratio greater than 2 ([2]; upon PARPi treatment): around 80%
